Each structure is given as a SMILES string. Like-named read-outs stand apart in the source and are kept apart here.

Experimental findings from patent publication US7595395B2, “Gabaergic agents to treat memory deficits” (priority 2005, dated 2009) are described below.

Assay [1] has as its target T1, α3β3γ2 benzodiazepine receptor GABA(A) isoform (UniProt P18507+P34903).
T1 sequence (P18507 1-475): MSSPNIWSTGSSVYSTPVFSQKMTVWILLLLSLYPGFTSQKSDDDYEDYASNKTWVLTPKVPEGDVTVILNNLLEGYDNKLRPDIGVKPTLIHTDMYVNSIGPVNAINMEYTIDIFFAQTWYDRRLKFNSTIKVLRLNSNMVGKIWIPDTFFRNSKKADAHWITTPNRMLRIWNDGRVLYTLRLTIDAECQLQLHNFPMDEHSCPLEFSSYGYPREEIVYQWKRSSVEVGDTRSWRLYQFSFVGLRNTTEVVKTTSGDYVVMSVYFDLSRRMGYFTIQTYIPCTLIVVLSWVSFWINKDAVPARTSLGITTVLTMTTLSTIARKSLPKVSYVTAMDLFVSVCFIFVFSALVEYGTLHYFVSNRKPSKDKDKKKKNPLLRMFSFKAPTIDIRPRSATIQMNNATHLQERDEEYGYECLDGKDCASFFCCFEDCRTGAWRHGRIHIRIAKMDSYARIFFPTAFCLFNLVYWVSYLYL
T1 sequence (P34903 1-492): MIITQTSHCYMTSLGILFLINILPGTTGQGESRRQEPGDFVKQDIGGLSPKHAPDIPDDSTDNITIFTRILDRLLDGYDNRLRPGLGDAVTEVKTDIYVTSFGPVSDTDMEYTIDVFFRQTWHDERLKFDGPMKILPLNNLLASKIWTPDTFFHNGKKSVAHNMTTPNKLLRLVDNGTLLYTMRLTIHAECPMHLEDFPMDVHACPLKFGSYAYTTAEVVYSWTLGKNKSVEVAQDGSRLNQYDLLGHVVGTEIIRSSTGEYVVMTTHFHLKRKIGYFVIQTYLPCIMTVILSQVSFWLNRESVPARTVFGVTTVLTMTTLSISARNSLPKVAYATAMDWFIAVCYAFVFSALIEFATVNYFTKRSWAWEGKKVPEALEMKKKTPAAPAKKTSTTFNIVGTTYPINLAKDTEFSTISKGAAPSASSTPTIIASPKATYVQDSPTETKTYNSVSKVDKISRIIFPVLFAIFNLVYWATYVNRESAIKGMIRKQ
In words: Radioligand competition binding, α3β3γ2 BzR/GABA(A) isoform. More on the design: species or system human and rat. As to the method: (§1) The affinity of all ligands at the 6 major recombinant GABAA/BzR subtypes was measured by competition for [^3H]Ro15-1788 binding to HEK-T cells expressing both human and rat GABAA/Bz receptors of composition α1β2γ2 (α1), α2β2γ2 (α2), α3β2γ2 (α3), α4β2γ2 (α4), α5β2γ2 (α5) and α6β2γ2 (α6). It is well known that the β2 and β3 subunits can be interchanged with no effect on Bz ligand affinity or efficacy. […] These studies are similar to those performed in the laboratory of Bryan Roth who has already expressed the receptors employing the work of Kucken et. al. and Gray et. al.
(§2) In brief, for membrane preparations, the cells were scraped on to the ice and diluted into 5 mL of phosphate buffered saline (pH=7.40) and cells pelleted by centrifugation for 5 min. at 4° C. The pellet was resuspended in 1 mL of 50 mM Tris-acetate buffer (pH 7.4) and centrifuged at 18,000 g for 20 min. […] Each pellet were diluted to 6 mL and then 100 μL of membranes were incubated with approximately 1 nM final concentration of [^3H]Ro 15-1788 in a total volume of 250 μL together with serial dilutions of test compound for 90 min. on ice. The membranes were harvested in polyethyleneimine-pretreated Whatman GF/C filters and after drying and addition of scintillation cocktail, counted in a scintillation counter. The cpm retained on the filters was plotted against log concentration (M) and fitted to one site competition equation to obtain the Ki using Graphpad Prizm (V4.0) using the Cheng-Prusoff approximation.

Assay [2] addresses α4β3γ2 benzodiazepine receptor GABA(A) isoform (UniProt P18507+P48169). In words: Radioligand competition binding, α4β3γ2 BzR/GABA(A) isoform. Further details: species or system human and rat. The method, then: as §1
as §2, with “The cpm retained on the filters was plotted against log concentration (M) and fitted to one site competition equation to obtain the Ki using Graphpad Prizm (V4.0) using the Cheng-Prusoff approximation.” left out

Assay [3] concerns the target T2, α5β3γ2 benzodiazepine receptor GABA(A) isoform (UniProt P18507+P31644).
T2 sequence (P18507 1-475): T1 sequence (P18507 1-475)
T2 sequence (P31644 1-462): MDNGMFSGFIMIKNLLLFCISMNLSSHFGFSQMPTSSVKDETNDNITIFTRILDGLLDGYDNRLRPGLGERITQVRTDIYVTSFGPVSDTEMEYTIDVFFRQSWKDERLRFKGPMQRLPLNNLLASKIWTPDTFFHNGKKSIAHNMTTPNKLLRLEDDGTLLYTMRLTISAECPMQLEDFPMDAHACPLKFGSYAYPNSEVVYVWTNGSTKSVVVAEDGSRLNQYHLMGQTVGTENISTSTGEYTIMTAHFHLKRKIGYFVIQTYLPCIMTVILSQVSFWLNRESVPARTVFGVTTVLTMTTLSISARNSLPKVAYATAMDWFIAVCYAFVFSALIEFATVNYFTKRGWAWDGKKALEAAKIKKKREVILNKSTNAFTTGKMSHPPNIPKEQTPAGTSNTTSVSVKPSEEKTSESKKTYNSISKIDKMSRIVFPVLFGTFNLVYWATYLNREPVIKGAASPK
In words: Radioligand competition binding, α5β3γ2 BzR/GABA(A) isoform. More on the design: Ki α5; other: text; HEK-T cells (Roth et al.); species or system human and rat. The following applies: read-out: Ki α5; HEK-T cells (Roth et al.). (In general: Loss of bound radioactivity is the signal in a displacement assay; it reports binding, not function.)

A further assay can be described thus: Tail flick assay. The following applies: in vivo. In general terms: Thermal pain tests record how soon the animal reacts.
The mark [4] stands for this setting: read-out: Ki α3, Table I, means of two determinations.
The mark [5] stands for this setting: read-out: α3, untitled table of lead compounds, unit inferred.

Take `CCOC(=O)c1ncn2c1CN=C(c1ccccc1)c1cc(-c3ccccc3)ccc1-2` [DM-I-81, Ethyl 8-phenyl-6-phenyl-4H-benzo[f]imidazo[1,5-a][1,4]diazepine-3-carboxylate]: the Ki in assay [1] (setting [4]) is > 2 µM; in assay [1] (setting [5]) it was > 2 µM; in assay [2] (Table I, means of two determinations, read-out: Ki α4), > 2 µM; in assay [2] (untitled table of lead compounds, unit inferred, read-out: α4), > 2 µM.

Take `COCc1ncn2c1CN(C)C(=O)c1cc(Cl)ccc1-2` [PWZ-029, methyl(8-chloro-5,6-dihydro-5-methyl-6-oxo-4H-imidazo[1,5-α][1,4]benzodiazepin-3-yl)methyl ether]: the Ki in assay [1] (setting [4]) and in assay [1] (setting [5]) was > 0.3 µM throughout.

For `CCc1ccc2c(c1)C(=O)N(C)Cc1c(C(=O)OCCCOC(=O)c3ncn4c3CN(C)C(=O)c3cc(CC)ccc3-4)ncn1-2` [XLi356, 1,3-Bis(8-ethyl-5,6-dihydro-5-methyl-6-oxo-4H-imidazo[1,5a][1,4]benzodiazepine-3-carboxy)propyl diester], the Ki in assay [3] was found to be 0.107 µM. The “analgesic effect in tail flick assay (in words)” value in the assay “Tail flick assay” is recorded as “No analgesic effect”.
